Legend:
Format in all cases: cell-based, human
PBMCs or CBMCs [1] = assay: CXCL10 (IP-10) ELISA; conditions: CBMCs compared with PBMCs
Protocol: (§1) Poly(I:C) (5 μg/ml) (Invivogen), Poly(dA:dT) (5 μg/ml) (Sigma-Aldrich), 2′3′ cGAMP (10 μg/ml), 5′ triphosphate double stranded RNA (5′ ppp dsRNA) (2.5 μg/ml) and HSV-60 (2 μg/ml) (all from Invivogen) were transfected into PBMCs or CBMCs using TransIT-X2 (Mirus).
(§2) Measurement of cytokines—HEK Blue TNFα/IFNα/β Assays were performed as per the manufacturer's (Invivogen) instructions using Quanti-Blue Detection Reagent. SEAP levels were determined using a spectrophotometer plate reader at 630 nm. IFNα (3425-1H-6, Mabtech) and IP-10 (DY266, R&D Systems) were detected by sandwich ELISA. IFNα ELISA used pan specific IFNα antibodies, which allows detection of IFNα subtypes 1/13, 2, 4, 5, 6, 7, 8, 10, 14, 16 and 17. BioLegend LEGENDplex™ Human Inflammation Panel (13-plex) was carried out as per manufacturer's (Biolegend) instructions to determine levels of IFNγ, IL-10, IL-12p70 and IL-23. A BD LSR Fortessa cell analyser was used to acquire samples and BioLegend LEGENDplex™ software was used for analysis.

PBMCs or CBMCs [2] = assay: HEK-Blue TNFα assay on supernatants; conditions: CBMCs compared with PBMCs; 4, 8 or 24 hours
Protocol: as §1, §2

PBMCs or CBMCs [3] = assay: Quantitative RT-PCR of TNFα, IFNα and CXCL10 mRNA; conditions: CBMCs vs PBMCs
Protocol: as §1
Quantitative RT-PCR—Total RNA from PBMCs or CBMCs was extracted using trizol extraction as previously described (16) and was reverse transcribed using MMLV Reverse Transcriptase (Promega) according to the manufacturer's protocol. This cDNA served as template for amplification of target genes, along with the ‘housekeeping’ gene βActin, by real-time PCR with SensiFast SYBR Green (Bioline) to determine the relative amounts of CXCL10, IFNα and TNFα mRNA. The ABI 7900HT system (Applied Biosystems) was used for real-time PCR, and the cycling threshold method (2^−(ΔΔCt)) was used for relative quantification by comparative method after normalization to βActin expression.

Which CXCL10 protein secretion (PBMCs or CBMCs [1]) does the source give for “poly(deoxyadenylic-thymidylic) acid [Poly(dA:dT)]” here?
Its CXCL10 protein secretion is “no significant difference in the CXCL10 response between PBMCs or CBMCs”.

What about the TNFα production (PBMCs or CBMCs [2]) of the same substance?
The TNFα production was “significantly more TNFα production from neonatal cells than from adult cells”.

What about the “CXCL10 mRNA expression” value (PBMCs or CBMCs [3]; 4 h) of the same substance?
The value was “no inhibition of transcription”.

What about the “IFNα mRNA expression” value (PBMCs or CBMCs [3]; 24 h) of the same substance?
Its value is “no inhibition of transcription”.

What about the “TNFα mRNA expression” value (PBMCs or CBMCs [3]; CNA 4 h, LPS 2 h) of the same substance?
The value was “no significant difference in TNFα levels”.

Source: patent US12629415B2, “Vaccine adjuvants” (THE PROVOST, FELLOWS, FOUNDATION SCHOLARS, AND THE OTHER …, priority 2018, dated 2026)
